Experimental data taken from patent US8314120B2, “Small molecule potentiators of metabotropic glutamate receptors” (Abbott GmbH & Co. KG, priority 2010, dated 2012).
Structures can show the parent of a compound that is named as a salt. Where two headings read alike, the source gives them in different places.

Legend:
mGlu2 [1] = biological target: T1, mGlu2 (Homo sapiens, UniProt Q14416); assay: FLIPR intracellular Ca2+ assay, potentiation of glutamate at mGlu2 receptor in HEK293 cell clone; type: cell-based; parameters: V5/His (named in the vector only); expressed in transfected cells; host or cells: HEK293; details: potentiation of 1 μM glutamate, HEK293 cells expressing human mGlu2, rGLAST and Galpha16
Protocol: For the purpose of the present study, a cell line permanently expressing the human mGlu2 receptor, the rat glutamate transporter rGLAST and the alpha subunit of G16 was generated by transfection. Briefly, HEK293 cells were seeded in petri dishes (diameter 15 cm) at a density of 2×10^6 cells in DMEM with glutamax (Invitrogen, GIBCO #21885-025), 10% dialyzed Fetal Calf Serum (Invitrogen, Gibco #26400-044), and incubated at 37° C. over night. The following day cells were transfected with Lipofectamine (Invitrogen, Gibco #18324-012) as recommended by the manufacturer, using linearized pcDNA3.1 (V5/His)-hmGlu2 receptor (ScaI) and pcDNA3.1 Zeo-Ga16 IRES rGLAST (SspI). After transfection the cells were selected in DMEM Glutamax Medium (Invitrogen, GIBCO #21885-025), containing 10% dialyzed fetal calf serum (FCS; (Invitrogen, Gibco #26400-044), antibiotic/antimycotic, 800 μg/ml Geneticin (G418) and 250 μg/ml Zeozin. Single clones were isolated manually and further subcloned by serial dilution.
The function of the mGlu2 receptor was determined by evaluating intracellular Ca^2+ concentrations under standard conditions in a fluorometric imaging plate reader (FLIPR, Molecular Devices, Union City, Calif. 94587, USA) by measuring the response of the cells to a test compound. The FLIPR assay is a common functional assay to monitor native or recombinant Galphaq-coupled receptors, and native or recombinant receptors normally linked to other G-protein signalling cascades, which are coupled to calcium through co-expression of an alpha subunit of a promiscuous or chimeric G-protein. In the assay the increase of intracellular calcium is measured through a calcium-dependent fluorescent dye (e.g. Fluo-4 AM) in the FLIPR instrument.
For selection of a suitable cell clone and also the subsequent measurements of the selected clone, 4×10^4 cells/well were plated on poly-D-lysine coated Biocoat-plates multiwell 96 in DMEM Glutamax (GIBCO #21885-025)/10% dialyzed FCS over night. The following day, the medium was aspirated and exchanged for glutamate-free DMEM (Gibco #21969-035), without FCS or glutamine, containing 50 μg/ml gentamycin (Gibco #15750). Cells were again incubated over night. Before the measurement, cells were loaded with 2 μM Fluo-4 AM (Molecular Probes, F14201; stock solution 1 mM in DMSO) and 0.02% Pluronic F127 (Molecular Probes, P3000; stock solution 10% in DMSO) in DMEM medium (Gibco #21969-035) for 45 minutes at 37° C. in a final volume of 100 μl per well. Finally, the plates were washed in a BioTec cell washer with HBSS, containing 20 mM HEPES. The end-volume in each well was 100 μl. The plates were subsequently measured in a fluorometric imaging plate reader (FLIPR, Molecular Devices, Union City, Calif. 94587, USA).
The compounds of the present invention were tested in the above-described FLIPR assay using the selected cell clone. Increased intracellular calcium levels were quantified following addition of test compound (agonism), as well as following addition of a submaximal concentration of 1 micromolar (1 μM) glutamate (potentiation).
For the determination of the effect of the test compound by itself (agonism) or by increasing the response to a submaximal concentration (e.g. 1 μM) of glutamate (potentiation), the resulting signal is determined by subtraction of the background fluorescence from the maximal fluorescent peak height of the respective response. In the FLIPR instrument the compound is given to the cell and its fluorescence response quantified by the FLIPR instrument (agonism). The concentration at which the compound exerts half its maximal effect is named the ‘effective concentration 50’ or ‘EC50’. The maximal effect induced by the test substance is normalized to the maximal effect exerted by 100 μM glutamate (set at 100%).
Ten minutes after addition of the test compound to the plate, 1 μM glutamate is added. A potentiator enhances the response of the receptor to glutamate. […]

mGlu2 [2] = biological target: T1, mGlu2; details: agonist; cited from earlier work

T1 sequence (Q14416 19-872): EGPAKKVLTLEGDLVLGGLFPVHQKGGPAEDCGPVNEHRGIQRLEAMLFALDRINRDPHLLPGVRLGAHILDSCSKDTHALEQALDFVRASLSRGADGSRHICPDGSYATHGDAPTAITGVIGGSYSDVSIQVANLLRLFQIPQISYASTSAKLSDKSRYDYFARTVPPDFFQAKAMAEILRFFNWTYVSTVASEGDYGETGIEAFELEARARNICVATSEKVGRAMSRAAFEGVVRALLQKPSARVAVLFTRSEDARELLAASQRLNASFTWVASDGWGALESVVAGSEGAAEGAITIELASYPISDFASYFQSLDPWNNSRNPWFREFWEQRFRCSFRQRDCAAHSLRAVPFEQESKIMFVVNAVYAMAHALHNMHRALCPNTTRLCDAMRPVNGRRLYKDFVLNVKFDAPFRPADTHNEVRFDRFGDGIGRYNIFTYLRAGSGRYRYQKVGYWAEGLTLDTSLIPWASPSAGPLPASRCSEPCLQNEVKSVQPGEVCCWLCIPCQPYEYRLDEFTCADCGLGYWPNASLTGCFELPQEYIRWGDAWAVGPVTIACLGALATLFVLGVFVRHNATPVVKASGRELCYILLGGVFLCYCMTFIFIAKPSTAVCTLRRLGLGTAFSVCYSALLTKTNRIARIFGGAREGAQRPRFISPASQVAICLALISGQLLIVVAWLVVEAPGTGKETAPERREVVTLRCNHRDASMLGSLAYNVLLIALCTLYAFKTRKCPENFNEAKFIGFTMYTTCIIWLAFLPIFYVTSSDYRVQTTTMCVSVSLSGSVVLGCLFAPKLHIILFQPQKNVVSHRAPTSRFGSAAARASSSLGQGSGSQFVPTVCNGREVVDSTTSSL

SMILES	EC50 (mGlu2 [1])	EC50 (mGlu2 [2])
CCCCN1Cc2cc(Nc3cncc(-c4ccccc4)c3)cc(Cl)c2C1=O [Example 4, 2-butyl-7-chloro-5-[(5-phenylpyridin-3-yl)amino]-2,3-dihydro-1H-isoindol-1-one]	500 to 2000 nM	–
CCCCN1Cc2cc(Nc3cncc(N4CCNCC4)c3)ccc2C1=O [Example 5, 2-butyl-5-{[5-(piperazin-1-yl)pyridin-3-yl]amino}-2,3-dihydro-1H-isoindol-1-one]	2000 to 10000 nM	–
CCCCN1Cc2cc(Nc3cc(N4CCNCC4)cnc3Cl)ccc2C1=O [Example 6, 2-butyl-5-{[2-chloro-5-(piperazin-1-yl)pyridin-3-yl]amino}-2,3-dihydro-1H-isoindol-1-one]	2000 to 10000 nM	–
CCCCN1Cc2cc(Nc3cncc(Cl)c3)ccc2C1=O [Example 7, 2-butyl-5-[(5-chloropyridin-3-yl)amino]-2,3-dihydro-1H-isoindol-1-one]	500 to 2000 nM	–
CCCCN1Cc2cc(Nc3cncc(N4CCOCC4)c3)ccc2C1=O [Example 8, 2-butyl-5-{[5-(morpholin-4-yl)pyridin-3-yl]amino}-2,3-dihydro-1H-isoindol-1-one]	< 500 nM	–
CCCCN1Cc2cc(Nc3cc(N4CCN(C)CC4)cnc3Cl)ccc2C1=O [Example 9, 2-butyl-5-{[2-chloro-5-(4-methylpiperazin-1-yl)pyridin-3-yl]amino}-2,3-dihydro-1H-isoindol-1-one]	500 to 2000 nM	–
CCCCN1Cc2cc(Oc3cncc(-c4ccccc4)c3)ccc2C1=O [Example 11, 2-butyl-5-[(5-phenylpyridin-3-yl)oxy]-2,3-dihydro-1H-isoindol-1-one]	< 500 nM	–
CCCCN1CCc2cc(Oc3cncc(-c4ccccc4)c3)ccc2C1=O [Example 14, 2-butyl-6-[(5-phenylpyridin-3-yl)oxy]-3,4-dihydroisoquinolin-1(2H)-one trifluoroacetate]	< 500 nM	–
CCCCN1Cc2cc(Nc3cncc(-c4ccccc4)n3)ccc2C1=O [Example 16, 2-butyl-5-(6-phenyl-pyrazin-2-ylamino)-2,3-dihydro-isoindol-1-one]	< 500 nM	–
CCCCN1CCc2c(Oc3cc(N4CCNCC4)cnc3Cl)cccc2C1=O [Example 21, 2-butyl-5-{[2-chloro-5-(piperazin-1-yl)pyridin-3-yl]oxy}-3,4-dihydroisoquinolin-1(2H)-one]	500 to 2000 nM	–
CCCCN1Cc2cc(-c3cncc(-c4ccccc4)c3)ccc2C1=O [Example 24, 2-butyl-5-(5-phenylpyridin-3-yl)-2,3-dihydro-1H-isoindol-1-one]	500 to 2000 nM	–
N[C@@]1(C(=O)O)CO[C@H]2[C@H](C(=O)O)[C@H]21 [LY379268]	–	3 nM

Now from value to compound, other results behind:

EC50 (mGlu2 [1])	SMILES	EC50 (mGlu2 [2])
2000 to 10000 nM	CCCCN1Cc2cc(Nc3cncc(N4CCN(C)CC4)c3)ccc2C1=O [Example 10, 2-butyl-5-{[5-(4-methylpiperazin-1-yl)pyridin-3-yl]amino}-2,3-dihydro-1H-isoindol-1-one]	–
< 500 nM	CCCCN1Cc2c(Oc3cncc(-c4ccccc4)c3)cccc2C1=O [Example 12, 2-butyl-4-[(5-phenylpyridin-3-yl)oxy]-2,3-dihydro-1H-isoindol-1-one trifluoroacetate]	–
< 500 nM	CCCCN1CCc2c(Oc3cncc(-c4ccccc4)c3)cccc2C1=O [Example 13, 2-butyl-5-[(5-phenylpyridin-3-yl)oxy]-3,4-dihydroisoquinolin-1(2H)-one trifluoroacetate]	–
500 to 2000 nM	CCCCN1Cc2ccc(Oc3cncc(-c4ccccc4)c3)cc2C1=O [Example 15, 2-butyl-6-[(5-phenylpyridin-3-yl)oxy]-2,3-dihydro-1H-isoindol-1-one trifluoroacetate]	–
500 to 2000 nM	CCCCN1Cc2cc(Nc3cnc4ccccc4c3)ccc2C1=O [Example 17, 2-butyl-5-(quinolin-3-ylamino)-2,3-dihydro-1H-isoindol-1-one]	–
2000 to 10000 nM	CCCCN1Cc2cc(Nc3cnc4ccccc4n3)ccc2C1=O [Example 18, 2-butyl-5-(quinoxalin-2-ylamino)-2,3-dihydro-1H-isoindol-1-one]	–
500 to 2000 nM	COCCN1Cc2cc(Nc3cncc(-c4ccccc4)c3)ccc2C1=O [Example 19, 2-(2-methoxyethyl)-5-[(5-phenylpyridin-3-yl)amino]-2,3-dihydro-1H-isoindol-1-one]	–
2000 to 10000 nM	CCCCN1Cc2cc(Nc3cccnc3Cl)ccc2C1=O [Example 20, 2-butyl-5-[(2-chloropyridin-3-yl)amino]-2,3-dihydro-1H-isoindol-1-one]	–
500 to 2000 nM	CCCCN1CCc2c(Oc3cc(N4CCN(C)CC4)cnc3Cl)cccc2C1=O [Example 22, 2-butyl-5-{[2-chloro-5-(4-methylpiperazin-1-yl)pyridin-3-yl]oxy}-3,4-dihydroisoquinolin-1(2H)-one]	–
500 to 2000 nM	CCCCN1Cc2cc(Cc3cncc(-c4ccccc4)c3)ccc2C1=O [Example 23, 2-butyl-5-[(5-phenylpyridin-3-yl)methyl]-2,3-dihydro-1H-isoindol-1-one]	–
